Measurements as given in US8614206B2 (Genentech, Inc., priority 2011, dated 2013).
Where two headings read alike, the source gives them in different places.

Experiments:
BaF3 parental cells = test: In vitro cell proliferation, BaF3 parental line + IL3 (CellTiter-Glo); format: cell-based, murine
Protocol: BaF3 parental line was obtained from the DSMZ repository. BaF3 lines transfected with PIM 1 or PIM2 were generated. Mouse IL-3 was purchased from R&D Systems. G418 was purchased from Clontech. Media for BaF3 parental line contained RPMI, 10% FBS, 2 mM L-Glutamine, 2 ng/mL mIL-3. Media for BaF3 PIM1 & 2 lines contained RPMI, 10% FBS, 2 mM L-Glutamine, 250 μg/mL.
BaF3, a murine interleukin-3 dependent pro-B cell line, parental cells, BaF3 PIM1 cells, BaF3 PIM2 cells, and MM1.S (multiple myeloma) cells were seeded at 2 k/well, 5 k/well, 5 k/well, and 10 k/well respectively, in a 384-well plate, at 45 μL/well. Test compound was added at 5 μL/well. BaF3 cells (parental and transfected) were incubated overnight, while MM1.S cells were incubated for 72 hours at 37° C., 5% CO2. CELL TITER GLO® Reagent (Promega) was added at 50 μL/well, the plates were incubated for 30 minutes, and their luminescence read on an HT Analyst. IC50/EC50 values for the test compound were calculated.

[1] = tested on: MM1.S (multiple myeloma) cells; test: In vitro cell proliferation, MM1.S multiple myeloma cells (CellTiter-Glo, ATP); format: cell-based; conditions: read-out: Prolif MM1S ATP (EC50)
Protocol: BaF3, a murine interleukin-3 dependent pro-B cell line, parental cells, BaF3 PIM1 cells, BaF3 PIM2 cells, and MM1.S (multiple myeloma) cells were seeded at 2 k/well, 5 k/well, 5 k/well, and 10 k/well respectively, in a 384-well plate, at 45 μL/well. Test compound was added at 5 μL/well. BaF3 cells (parental and transfected) were incubated overnight, while MM1.S cells were incubated for 72 hours at 37° C., 5% CO2. […] IC50/EC50 values for the test compound were calculated.

PIM1 = PIM1 (Homo sapiens (Human), UniProt P11309); test: Pim kinase inhibition, PIM1 LC3K (Example 901); format: biochemical
PIM1, sequence (P11309 whole entry): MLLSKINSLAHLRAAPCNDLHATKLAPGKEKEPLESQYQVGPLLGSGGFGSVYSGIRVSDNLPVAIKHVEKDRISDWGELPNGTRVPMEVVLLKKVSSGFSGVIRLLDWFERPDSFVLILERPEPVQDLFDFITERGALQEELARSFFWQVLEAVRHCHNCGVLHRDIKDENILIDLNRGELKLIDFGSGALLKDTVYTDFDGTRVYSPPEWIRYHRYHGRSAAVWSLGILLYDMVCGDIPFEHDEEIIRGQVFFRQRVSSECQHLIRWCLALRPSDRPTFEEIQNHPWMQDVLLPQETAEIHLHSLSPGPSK
Source text: Determination of the Pim kinase activity of a Formula I compound is possible by a number of direct and indirect detection methods.

[2] = Mus musculus, BaF3, BaF3 parental cells with IL-3, incubated overnight, read-out: Prolif BaF3 + IL3 (IC50)
[3] = BaF3 parental cells with IL-3, incubated overnight, read-out: Prolif BaF3 + IL3 (IC50)
[4] = Mus musculus, BaF3, BaF3 parental cells with IL-3, incubated overnight, read-out: Prolif BaF3 IL3 (IC50)

| Compound | IC50 (BaF3 parental cells; [2]) [µM] | EC50 ([1]; Homo sapiens, MM1.S, 72 h) [µM] | EC50 ([1]; 72 hours) [µM] | further results |
| --- | --- | --- | --- | --- |
| CO[C@@H]1CCN(c2c(NC(=O)c3nc(-c4c(F)cccc4F)sc3N)cnn2C)CC2(CC2)[C@@H]1N [Example 517, 5-amino-N-(5-((8R,9S)-9-amino-8-methoxy-5-azaspiro[2.6]nonan-5-yl)-1-methyl-1H-pyrazol-4-yl)-2-(2,6-difluorophenyl)thiazole-4-carboxamide] | 11.9 | 9.9 | – | – |
| Cn1ncc(NC(=O)c2nc(-c3c(F)cccc3F)sc2N)c1C1CCC(N)CC(C)(O)C1 (single isomer, unassigned) [Example 456, 5-amino-N-[5-(5-amino-3-hydroxy-3-methyl-cycloheptyl)-1-methyl-pyrazol-4-yl]-2-(2,6-difluorophenyl)thiazole-4-carboxamide] | > 25 | – | > 25 | – |
| Cn1ncc(NC(=O)c2nc(-c3c(F)cccc3F)sc2N)c1N1CCCC(C)(N)CC1 (racemic) [Example 411, 5-amino-N-[5-(4-amino-4-methyl-azepan-1-yl)-1-methyl-pyrazol-4-yl]-2-(2,6-difluorophenyl)thiazole-4-carboxamide] | 17.7 | 1.8 | – | – |
| CC1CC(N)CCN(c2c(NC(=O)c3nc(-c4c(F)cccc4F)sc3N)cnn2C)C1 (stereo not shown) [Example 453, 5-amino-N-[5-(5-amino-3-methyl-azepan-1-yl)-1-methyl-pyrazol-4-yl]-2-(2,6-difluorophenyl)thiazole-4-carboxamide] | 14.1 | 3.2 | – | – |
| Cn1ncc(NC(=O)c2nc(-c3c(F)cccc3F)sc2N)c1N1CCCC2(CNC2)C1 [Example 508, 5-amino-N-[5-(2,6-diazaspiro[3.5]nonan-6-yl)-1-methyl-pyrazol-4-yl]-2-(2,6-difluorophenyl)thiazole-4-carboxamide] | 25 | 3 | – | – |
| COC1CC(N)CCN(c2c(NC(=O)c3nc(-c4c(F)cccc4F)sc3N)cnn2C)C1 (stereo not shown) [Example 321, 5-amino-N-[5-(5-amino-3-methoxy-azepan-1-yl)-1-methyl-pyrazol-4-yl]-2-(2,6-difluorophenyl)thiazole-4-carboxamide] | – | – | 0.00846 | IC50 (BaF3 parental cells; [3]): > 25 µM |
| COC1CC(N)CCN(c2c(NC(=O)c3nc(-c4c(F)cccc4F)sc3N)cnn2C)C1 (stereo not shown) [Example 320, 5-amino-N-[5-(5-amino-3-methoxy-azepan-1-yl)-1-methyl-pyrazol-4-yl]-2-(2,6-difluorophenyl)thiazole-4-carboxamide] | 25 | – | 0.118 | – |
| Cn1ncc(NC(=O)c2nc(-c3c(F)cccc3F)sc2N)c1N1CC2CNCC(C1)O2 [Example 354, 5-amino-2-(2,6-difluorophenyl)-N-[1-methyl-5-(9-oxa-3,7-diazabicyclo[3.3.1]nonan-3-yl)pyrazol-4-yl]thiazole-4-carboxamide] | 14.4 | 0.168 | – | – |
| COC1(C)CC(N)CCN(c2c(NC(=O)c3nc(-c4c(F)cccc4F)sc3N)cnn2C)C1 (single isomer, unassigned) [Example 353, 5-amino-N-[5-(5-amino-3-methoxy-3-methyl-azepan-1-yl)-1-methyl-pyrazol-4-yl]-2-(2,6-difluorophenyl)thiazole-4-carboxamide] | – | – | 0.139 | IC50 (BaF3 parental cells; [3]): 25 µM |
| CO[C@H]1CCC(c2c(NC(=O)c3nc(-c4ccccc4F)sc3N)cnn2C)CC[C@@H]1N (single isomer, unassigned) [Example 414] | > 25 | 0.0699 | – | – |
| CC[C@H]1CNCCN1c1c(NC(=O)c2nc(-c3c(F)cccc3F)sc2N)cnn1C [Example 113, (S)-5-Amino-2-(2,6-difluorophenyl)-N-(5-(2-ethylpiperazin-1-yl)-1-methyl-1H-pyrazol-4-yl)thiazole-4-carboxamide] | – | 19 | – | IC50 (BaF3 parental cells; [4]): > 25 µM |
| CCOC1CCN(c2c(NC(=O)c3nc(-c4c(F)cccc4F)sc3N)cnn2C)CCC1N (stereo not shown) [Example 514, 5-amino-N-[5-(4-amino-5-ethoxy-azepan-1-yl)-1-methyl-pyrazol-4-yl]-2-(2,6-difluorophenyl)thiazole-4-carboxamide] | 15.4 | – | 3.1 | – |
| Cn1ncc(NC(=O)c2nc(-c3c(F)cccc3F)sc2N)c1N1CCC2(CC1)CNCCO2 [Example 484, 5-amino-2-(2,6-difluorophenyl)-N-[1-methyl-5-(1-oxa-4,9-diazaspiro[5.5]undecan-9-yl)pyrazol-4-yl]thiazole-4-carboxamide] | 14.3 | 13.7 | – | – |
| Cn1ncc(NC(=O)c2nc(-c3c(F)cccc3F)sc2N)c1N1CCCC2(CCCN2)CC1 (stereo not shown) [Example 351, 5-amino-N-[5-(1,9-diazaspiro[4.6]undecan-9-yl)-1-methyl-pyrazol-4-yl]-2-(2,6-difluorophenyl)thiazole-4-carboxamide] | 5.6 | 4.9 | – | – |
| COC1CCC(c2c(NC(=O)c3nc(-c4ccccc4F)sc3N)cnn2C)CCC1N (stereo not shown) [Example 504] | 15.3 | 10.5 | – | – |
| Cn1ncc(NC(=O)c2nc(-c3c(F)cccc3F)sc2N)c1N1CCC(N)CC2(CCO2)C1 (single isomer, unassigned) [Example 448, 5-amino-N-[5-(6-amino-1-oxa-9-azaspiro[3.6]decan-9-yl)-1-methyl-pyrazol-4-yl]-2-(2,6-difluorophenyl)thiazole-4-carboxamide] | > 25 | – | 1.4 | – |
| Cn1ncc(NC(=O)c2nc(-c3c(F)cccc3F)sc2N)c1N1CC[C@H](N)C[C@@H](F)C1 (stereo in doubt) [Example 154, 5-amino-N-(5-(5-amino-3-fluoroazepan-1-yl)-1-methyl-1H-pyrazol-4-yl)-2-(2,6-difluorophenyl)thiazole-4-carboxamide] | – | 0.0651 | – | IC50 (BaF3 parental cells; [4]): 24.5 µM |
| CO[C@H]1CC=C(c2c(NC(=O)c3nc(-c4c(F)cccc4F)sc3N)cnn2C)CC[C@@H]1N [Example 410, 5-amino-N-(5-((4S,5S)-5-amino-4-methoxycyclohept-1-enyl)-1-methyl-1H-pyrazol-4-yl)-2-(2,6-difluorophenyl)thiazole-4-carboxamide] | 9.2 | 0.693 | – | – |
| Cn1ncc(NC(=O)c2nc(-c3ccccc3F)sc2N)c1N1CC[C@@H](N)[C@H](F)CC1 (single isomer, unassigned) [Example 230] | – | 1.3 | – | IC50 (BaF3 parental cells; [4]): 18.1 µM |
| Cn1ncc(NC(=O)c2nc(-c3c(F)cccc3F)sc2N)c1N1CCC(N)C(O)CC1 (single isomer, unassigned) [Example 337, 5-amino-N-[5-(4-amino-5-hydroxy-azepan-1-yl)-1-methyl-pyrazol-4-yl]-2-(2,6-difluorophenyl)thiazole-4-carboxamide] | – | – | 0.0308 | IC50 (BaF3 parental cells; [3]): 25 µM |
| Cn1ncc(NC(=O)c2nc(-c3c(F)cccc3F)sc2N)c1N1CCC(N)C(O)CC1 (single isomer, unassigned) [Example 327, 5-amino-N-[5-(4-amino-5-hydroxy-azepan-1-yl)-1-methyl-pyrazol-4-yl]-2-(2,6-difluorophenyl)thiazole-4-carboxamide] | > 25 | – | 14.7 | – |
| Cn1ncc(NC(=O)c2nc(-c3c(F)cccc3F)sc2N)c1N1CCC(N)C(CO)CC1 (stereo not shown) [Example 513, 5-amino-N-[5-[4-amino-5-(hydroxymethyl)azepan-1-yl]-1-methyl-pyrazol-4-yl]-2-(2,6-difluorophenyl)thiazole-4-carboxamide] | > 25 | 7.2 | – | – |
| Cn1ncc(NC(=O)c2nc(-c3c(F)cccc3F)sc2N)c1N1CC[C@@H](N)C[C@@H](F)C1 [Example 126, 5-amino-N-(5-((3R,5R)-5-amino-3-fluoroazepan-1-yl)-1-methyl-1H-pyrazol-4-yl)-2-(2,6-difluorophenyl)thiazole-4-carboxamide] | – | 0.11 | – | IC50 (BaF3 parental cells; [4]): > 25 µM |
| CNC1CCN(c2c(NC(=O)c3nc(-c4c(F)cccc4F)sc3N)cnn2C)CC(F)(F)C1 (stereo not shown) [Example 408, 5-amino-N-[5-[3,3-difluoro-5-(methylamino)azepan-1-yl]-1-methyl-pyrazol-4-yl]-2-(2,6-difluorophenyl)thiazole-4-carboxamide] | 16.5 | – | 2.4 | – |
| CCOC1CCN(c2c(NC(=O)c3nc(-c4c(F)cccc4F)sc3N)cnn2C)CCC1N (stereo not shown) [Example 515, 5-amino-N-[5-(4-amino-5-ethoxy-azepan-1-yl)-1-methyl-pyrazol-4-yl]-2-(2,6-difluorophenyl)thiazole-4-carboxamide] | – | – | 0.0733 | IC50 (BaF3 parental cells; [3]): 14.7 µM |
| Cn1ncc(NC(=O)c2nc(-c3c(F)cccc3F)sc2N)c1N1CCNC[C@]2(CCO2)C1 (single isomer, unassigned) [Example 483] | > 25 | > 25 | – | – |
| Cn1ncc(NC(=O)c2nc(-c3ncccc3F)sc2N)c1N1CC[C@@H](F)[C@@H](N)CC1 [Example 388, 5-amino-N-(5-((4S,5R)-4-amino-5-fluoroazepan-1-yl)-1-methyl-1H-pyrazol-4-yl)-2-(3-fluoropyridin-2-yl)thiazole-4-carboxamide] | – | 0.396 | – | Ki (PIM1): 0.462 nM |
| CO[C@H]1CCN(c2c(NC(=O)c3nc(-c4c(F)cccc4F)sc3N)cnn2C2CC2)CC[C@@H]1N [Example 365, 5-amino-N-(5-((4S,5S)-4-amino-5-methoxyazepan-1-yl)-1-cyclopropyl-1H-pyrazol-4-yl)-2-(2,6-difluorophenyl)thiazole-4-carboxamide] | – | 0.606 | – | Ki (PIM1): 0.219 nM |
| Nc1sc(-c2c(F)cccc2F)nc1C(=O)Nc1cnn(CC(F)F)c1N1CCC(N)C(O)CC1 (single isomer, unassigned) [Example 399, 5-amino-N-[5-(4-amino-5-hydroxy-azepan-1-yl)-1-(2,2-difluoroethyl)pyrazol-4-yl]-2-(2,6-difluorophenyl)thiazole-4-carboxamide] | – | – | 0.0419 | Ki (PIM1): 0.018 nM |
